Assay results as given in patent publication US20210251208A1, “COMPOSITION AND METHOD FOR ATTRACTING BED BUGS” (NATTARO LABS AB, priority 2016, published 2021).
“And” between values parts separate entries of the source, which are not always exact repeats. Equal entries are not always repeated. “Also recorded” adds a separate entry of the source.

Experiments:
bed bugs [1] = assay: Arena test of individual compounds vs. blend (40 cm arena, synergy); assay type: in vivo; conditions: individual compound 100 mg/l in gelatine, five females and five males, N = 10
Procedure: The following six tests were carried out: arena test of each of the five compounds a, b, e, f, and g individually and a test of the whole blend abefg. The procedure was the following.
Gelatine solutions (lures) each containing a total of 100 mg/l of either (a) E-2-hexenal, (b) E-2-octenal, (e) E-2-hexenoic acid, (f) 2-octenoic acid and (g) 2-hexanone or the combination of the five compounds abefg were prepared.
Five female and five male bedbugs were released into the centre of the arena in a dark room. The arena was lit with infrared light and after an initial 5 min acclimatization bed bugs were released in the middle of the arena and left for 30 minutes during which time their activity was video-recorded using an Infrared light camera coupled to Noldus Ethovision 15 program. At the end of the 30 minutes period, the bed bugs were manually collected and their positions recorded.
After each replicate, the arena was cleaned with 70% ethanol and the position of the compound and controls were shifted. Ten replicates were made with each of the individual compound lures and the whole blend totalling 60 tests comprising 600 bed bugs, 300 females and 300 males. […] This value was subtracted from the number of bed bugs attracted to each lure correcting for the random part in the attraction in each replicate. The corrected values were used to calculate the average number of bed bugs attracted to each individual lure chemical and to the lure blend.

[2] = Dynamic headspace collection of volatiles from bait, GC-MS; assay type: physicochemical; conditions: abefg 1:1:1:1:1 in gelatine 100 mg/l of each compound
Procedure: After collection of the enfleurage samples head-space collections were made from each container using a special lid into which an adsorbent plug was inserted. The head-space of all containers in a replicate was collected simultaneously under dark conditions (except the first samples of replicate one) using battery operated membrane pumps. The air-flow through each container was adjusted to 35-40 ml/min. The head-space samples were collected for 2 hours for replicate one to three after the first week, but was extended to 4-6 hours for replicate 4 & 5 and for all replicates and collections after the second week. This was done to secure more material as the first samples were very weak.
The samples were analyzed on a gas chromatograph (GC, Hewlett-Packard 6890 Series) equipped with a polar capillary column (Innowax; 30 m long, 0.25 mm i.d. and film thickness 0.25 μm Agilent Technologies USA) coupled to a mass spectrometer (Hewlett-Packard 5973 Mass Selective Detector). The injector temperature was 225° C. and the injection splitless. The GC temperature was programmed for 2 min at 40° C. followed by a gradual increase of 8°/min to 225° C., where the temperature was held steady for five min. Compounds were identified against the spectra and retention times of authentic reference compounds or in a few cases against the spectral libraries of ADAM and NIST2011.
One of the baits used in the Arena test was placed in a container and the dynamic headspace was collected as described in example 1 and analysed using Gas chromatography-Mass spectroscopy (GC-MS).

[3] = Stability / shelf-life of baits; assay type: physicochemical; conditions: ascorbic acid included in gelatine baits
Excerpt: The inclusion of ascorbic acid was thus subsequently discontinued.

bed bugs [4] = assay: Arena test of baits (52 cm arena, ten bed bugs, 30 minutes); assay type: in vivo; conditions: baits formulated using 3 wt % methylcellulose
Procedure: In these tests bed bugs were placed in an arena and allowed to freely move around while the movement patterns were recorded, including in particular the time that bed bugs spent in proximity to each of the three different stations, each station comprising a bait (test compound) or control.
The arena comprised a round (52 cm diameter) white painted metal tray with a 3.8 cm high rim. Evenly spaced half way between centrum and periphery three holes (3.4 cm diam) were bored. To prevent bed bug escape the rim was painted with Insect-a-Slip (#2871C Fluon, BioQuip Products, Inc. 2321 E, Chadwick St., Rancho Dominguez, Calif. 90220) resulting in a non-porous slippery, surface at the rim of the tray.
Three plastic containers (34 mm diam×7 cm high), each with a net covered hole (18 mm diam) at the bottom to allow airflow, were attached below the holes at the underside of the arena using clay dough. At the start of an experiment the compounds/baits and controls were placed one in each container below the arena. […]
Bed bugs, ten at a time, were introduced in separate vials into the middle of the arena and simultaneously video recording was started. […] At the end of the 30 minutes experimental period, the number of bed bugs in each container, and beneath or at the rim of the convex glass sheet above each container was scored. […] The final position was not recorded during early experiments. […]

Row | Compound | No. of bed bugs at test compound position at end of experiment (average, corrected for random attraction to controls) (bed bugs [1]) | AMOUNT in headspace of bait ([2]; Sample no. 15:209-213) [nano gram/hour] | AMOUNT in headspace of bait ([2]; Sample no. 15:215-219) [nano gram/hour] | AMOUNT in headspace of bait ([2]; Sample no. 15:245.1-5) [nano gram/hour] | AMOUNT in headspace of bait ([2]; Sample no. 16:02.1-5) [nano gram/hour] | AMOUNT in headspace of bait ([2]; Sample no. 16.37-40) [nano gram/hour] | effect of anti-oxidant on baits / shelf-life of the composition [3] | attractive effect in (initial) Arena tests (bed bugs [4])
1 | CCC/C=C/C=O [(a) E-2-hexenal, (E)-2-hexenal] | slightly deterrent effect and −0.50 |  |  |  |  |  |  | 
2 | CCCCC(C)=O [(g) 2-hexanone, 2-Hexanone] | 1.35 | 429.1 | 310.3 | 168.2 | 76.1 | 402.0 |  | 
3 | O=C1O[C@H]([C@@H](O)CO)C(O)=C1O [ascorbic acid] |  |  |  |  |  |  | degraded the baits and resulted in lower efficiency of the baits; also recorded: decreased the shelf-life of the composition | 
4 | CCC(=O)/C=C/C=O [4-Oxo-(E)-2-hexenal] |  |  |  |  |  |  |  | no attractive effect, rather as having a repulsive effect
5 | CCCCC(=O)/C=C/C=O [4-oxo-(E)-2-octenal, 4-Oxo-(E)-2-octenal] |  |  |  |  |  |  |  | no attractive effect, rather as having a repulsive effect
6 | CCC/C=C/C(=O)O [(e) E-2-hexenoic acid, (E)-2-hexenoic acid] | 0.55 | 0.2 | 3.1 | 0 | 1.4 | 0.08 |  | 
7 | (Z)- & (E)-2-octenal |  | 914.5 | 477.6 | 438.5 | 405.2 | 349.9 |  | 
8 | (Z)- & (E)-2-Hexenal |  | 565.6 | 234.6 | 136.3 | 102.2 | 258.3 |  | 
9 | (E)-octenoic acid |  | 0 | 0.8 | 0 | 0 | 0.01 |  | 
10 | CCCCCC=CC(=O)O [(f) E-2-octenic acid, 2-Octenoic acid] | 0.35 |  |  |  |  |  |  | 
11 | CCCCC/C=C/C=O [(b) E-2-octenal, (E)-2-octenal] | 1.35 |  |  |  |  |  |  | 
